# Assay results reported in EP3338554A1, “COMPOSITION AND METHOD FOR PREVENTING DEPOSIT FORMATION IN A DRIP IRRIGATION SYSTEM” (Evonik Degussa GmbH, priority 2016, dated 2018).
# Experiment: Calcium sulfate precipitation test of NACE standard TM0374-2007 (scale inhibition efficiency)
# Experimental: The efficiency for preventing the precipitation of calcium sulfate from aqueous solution was determined with the calcium sulfate precipitation test of NACE standard TM0374-2007. A composition prepared as in example 1 was added in amounts providing the concentrations of hydrogen peroxide and HEDP in the test brine given in table 4. The hydrogen peroxide and the HEDP used for making the composition were tested for comparison.
Compound,% inhibition in calcium sulfate precipitation test (HEDP 1 ppm alone) [%],% inhibition in calcium sulfate precipitation test (HEDP 5 ppm alone) [%],% inhibition in calcium sulfate precipitation test (HEDP 10 ppm alone) [%],% inhibition in calcium sulfate precipitation test (hydrogen peroxide 10 ppm alone) [%],% inhibition in calcium sulfate precipitation test (hydrogen peroxide 50 ppm alone) [%],% inhibition in calcium sulfate precipitation test (hydrogen peroxide 100 ppm alone) [%]
"CC(O)(P(=O)(O)O)P(=O)(O)O [HEDP, 1-hydroxyethylidene-1,1-diphosphonic acid]",39,77,74,–,–,–
"OO [Hydrogen peroxide, hydrogen peroxide]",–,–,–,-8,-9,-9
